From ChEMBL document CHEMBL1201862, “PubChem BioAssay data set” (2004) come the findings set out here.

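48-hour exposure; five concentrations; linearly interpolated endpoints. GI50 marks 50% less growth.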 Calls of active or inactive are those of the source. Rule as the data show it: active = GI50 up to about 1.1 µM and inactive = higher. Bounds are passed on as bounds.

Test systems include ACHN; OVCAR-8; SNB-19; M19-MEL; HCT-15; TK-10; IGROV-1; U-251; SF-268; HL-60; HT-29; K562; RPMI-8226; SK-MEL-28; RXF 393; HCC 2998; DMS-273; T47D; MCF7; NCI/ADR-RES.
What all share (test): growth of human tumour cells (NCI), 48 h

Regarding `C=CC1(C)CCC2=C(CCC3C(C)(C(=O)OC)CCCC23C)C1=O` (stereo unspecified), the GI50 in the experiment with ACHN was 17.7 µM (inactive); in the experiment with OVCAR-8, 29.8 µM (inactive); in the experiment with SNB-19 it was 38.4 µM (inactive); in the experiment on M19-MEL, 18.7 µM (inactive); with HCT-15, 20.6 µM; in the experiment on TK-10, 19.9 µM (inactive). The GI50 in the experiment on IGROV-1 was 18.9 µM (inactive); in the experiment with U-251, 15.6 µM (inactive); with SF-268 it was 18.7 µM (inactive); in the experiment with HL-60 it was 28.7 µM (inactive); with HT-29 it was 17 µM (inactive); in the experiment on K562 it was 38.8 µM (inactive). Moreover, the GI50 in the experiment with RPMI-8226 is 21.7 µM (inactive).

On to `NC1C(O)C(O)C(CO)OC1n1cc(F)c(=O)[nH]c1=O` (stereo unspecified), for which the GI50 in the experiment on ACHN was > 100 µM (inactive); with SNB-19, > 100 µM (inactive); in the experiment on SK-MEL-28, > 100 µM (inactive); in the experiment on HCT-15, over 100 µM; in the experiment with RXF 393, > 100 µM (inactive); with TK-10, > 100 µM (inactive). Further, the GI50 in the experiment with U-251, with HCC 2998, in the experiment with SF-268, in the experiment with HL-60, in the experiment on HT-29 and in the experiment on DMS-273 was > 100 µM (inactive) in each case. The GI50 in the experiment with RPMI-8226 was > 100 µM (inactive).

Consider `O=C1C(=C2CCCC2)CCC1CN1CCCCC1` (stereo unspecified), for which the GI50 with OVCAR-8 is 21.5 µM (inactive); with SNB-19, > 100 µM (inactive); with SK-MEL-28 it was 17.5 µM (inactive); in the experiment with M19-MEL, 32.4 µM (inactive); in the experiment on HCT-15 it was 16.3 µM; in the experiment with RXF 393 it was 16.4 µM (inactive). Further, the GI50 with TK-10 was 14.1 µM (inactive); in the experiment with IGROV-1 it was 18.4 µM (inactive); with U-251 it was > 100 µM (inactive); in the experiment on HCC 2998, 16.3 µM (inactive); in the experiment with SF-268, 19.5 µM (inactive); with HL-60, 4.63 µM (inactive). In addition, the values for the GI50 with HT-29 and in the experiment on K562 were 20.4 µM (inactive) and 16.3 µM (inactive), respectively.

In the case of `COC(=O)C1=C(C)N2CCOC2CC1c1ccccc1` (stereo unspecified), the GI50 was > 100 µM (inactive) in the experiment with ACHN; > 100 µM (inactive) in the experiment on OVCAR-8; > 100 µM (inactive) in the experiment on SNB-19; 99.1 µM (inactive) in the experiment on SK-MEL-28; > 100 µM (inactive) in the experiment on M19-MEL; 48.6 µM (inactive) in the experiment with RXF 393. The GI50 in the experiment with TK-10 was > 100 µM (inactive); in the experiment with IGROV-1, > 100 µM (inactive); in the experiment with HCC 2998, > 100 µM (inactive); in the experiment with SF-268, > 100 µM (inactive); in the experiment on HL-60, 53.5 µM (inactive); with HT-29, > 100 µM (inactive). Moreover, the GI50 is 70.5 µM (inactive) in the experiment on K562 and 40.4 µM (inactive) in the experiment on RPMI-8226.

As for `CCC1(O)CC(O)c2c(O)c3c(c(O)c2C1C(=O)OC)C(=O)c1cccc(O)c1C3=O` (stereo unspecified), the GI50 with ACHN was 3 µM (inactive); in the experiment on OVCAR-8, 1.63 µM (inactive); in the experiment on SNB-19, 2.45 µM (inactive); in the experiment with SK-MEL-28 it was 11.4 µM (inactive); with HCT-15, 1.54 µM; with RXF 393, 7.67 µM (inactive). Besides, the GI50 is 3.77 µM (inactive) in the experiment on T47D; 7.67 µM (inactive) with TK-10; 1.39 µM (inactive) in the experiment on IGROV-1; 3.74 µM (inactive) in the experiment on U-251; 4.43 µM (inactive) with HCC 2998; 2.44 µM (inactive) in the experiment on SF-268. The GI50 in the experiment with MCF7 was 3.28 µM (inactive); in the experiment with HL-60, 0.794 µM (active); in the experiment on HT-29 it was 3.27 µM (inactive); in the experiment on K562, 1.96 µM (inactive); in the experiment on RPMI-8226, 2.21 µM (inactive); with NCI/ADR-RES, 0.656 µM (active).

In the case of `CN(C)c1cccc(/C=C(\C#N)c2ccccc2)c1`, the GI50 is 14.4 µM (inactive) in the experiment with ACHN; 1.01 µM (active) with OVCAR-8; 1.72 µM (inactive) with SNB-19; 7.33 µM (inactive) in the experiment on SK-MEL-28; 0.219 µM with HCT-15; 0.706 µM (active) with RXF 393. The GI50 with T47D is 0.525 µM (active); in the experiment with TK-10, 0.944 µM (active); in the experiment on IGROV-1 it was 1.11 µM (active); with U-251 it was 0.687 µM (active); in the experiment with HCC 2998, 0.565 µM (active); in the experiment with SF-268 it was 8.77 µM (inactive). Further, the GI50 in the experiment on MCF7 is 0.218 µM (active); in the experiment with HL-60, 0.0865 µM (active); with HT-29, 0.213 µM (active); with K562, 0.0927 µM (active); in the experiment on RPMI-8226 it was 0.579 µM (active); in the experiment on NCI/ADR-RES, 0.257 µM (active).

Take `CN(C)c1nc(-c2ccccc2)c(C(=O)c2c[nH]c3ccccc23)s1`: the GI50 was 30.5 µM (inactive) in the experiment with ACHN; 9.62 µM (inactive) in the experiment with OVCAR-8; 14.8 µM (inactive) in the experiment on SNB-19; > 35.2 µM (inactive) in the experiment on SK-MEL-28; 3.9 µM with HCT-15; 14.2 µM (inactive) with RXF 393. Besides, the GI50 in the experiment with T47D is > 43.7 µM (inactive); in the experiment with TK-10 it was 7.53 µM (inactive); with IGROV-1, 3.89 µM (inactive); in the experiment with U-251, 5.66 µM (inactive); in the experiment on HCC 2998, 6.55 µM (inactive); in the experiment with SF-268, 9.2 µM (inactive). Moreover, the GI50 in the experiment on MCF7 is 4.48 µM (inactive); in the experiment on HL-60, 3.4 µM (inactive); in the experiment with HT-29, 3.51 µM (inactive); with K562, 4.07 µM (inactive); with RPMI-8226, 3.16 µM (inactive); with NCI/ADR-RES, 3.06 µM (inactive).

For `COc1ccc(C(c2ccc(C(C)C)cc(=O)c2O)c2ccc3cccnc3c2O)cc1` (stereo unspecified), the GI50 in the experiment on ACHN was 0.274 µM (active); with OVCAR-8, 1.08 µM (active); in the experiment on M19-MEL, 0.484 µM (active); with HCT-15, 0.449 µM; with IGROV-1 it was 0.425 µM (active); in the experiment with U-251, 0.438 µM (active). Moreover, the GI50 in the experiment on SF-268 is 0.399 µM (active); with HL-60, 0.863 µM (active); in the experiment with HT-29, 3.07 µM (inactive); in the experiment on DMS-273, 0.31 µM (active); in the experiment on K562, 0.399 µM (active); in the experiment on RPMI-8226 it was 1.97 µM (inactive).

As to `CNC(=S)N/N=C(\C)c1nc2cccnc2[nH]1`, the GI50 with ACHN is 38.9 µM (inactive); with OVCAR-8, 48.9 µM (inactive); with SNB-19 it was > 53.8 µM (inactive); in the experiment with SK-MEL-28, 82.6 µM (inactive); in the experiment on HCT-15 it was 29.2 µM; in the experiment with RXF 393, 62.2 µM (inactive). For the same molecule, the GI50 was 43.5 µM (inactive) with T47D; 32.5 µM (inactive) in the experiment on TK-10; 62.7 µM (inactive) with IGROV-1; 39.8 µM (inactive) in the experiment with U-251; 19.1 µM (inactive) in the experiment on HCC 2998; 37.7 µM (inactive) in the experiment with SF-268. In addition, the GI50 was 34.3 µM (inactive) with MCF7; 17.6 µM (inactive) in the experiment with HL-60; 36.8 µM (inactive) in the experiment on HT-29; 95.3 µM (inactive) with K562; 71.9 µM (inactive) in the experiment with RPMI-8226; 15.3 µM (inactive) in the experiment on NCI/ADR-RES.

Consider `OC[P+](CO)(CO)C12CC3CC(CC(C3)C1)C2`, for which the GI50 is > 100 µM (inactive) in the experiment with ACHN; > 100 µM (inactive) with OVCAR-8; 87.1 µM (inactive) in the experiment on SNB-19; > 100 µM (inactive) in the experiment on SK-MEL-28; over 89.5 µM with HCT-15; > 63.2 µM (inactive) in the experiment with RXF 393. The GI50 with T47D is > 100 µM (inactive); with TK-10, > 100 µM (inactive); in the experiment with IGROV-1 it was 4.85 µM (inactive); in the experiment on U-251 it was > 100 µM (inactive); with HCC 2998, > 100 µM (inactive); in the experiment on SF-268, > 100 µM (inactive). Moreover, the GI50 was > 100 µM (inactive) with MCF7; 10.3 µM (inactive) in the experiment on HL-60; 48.5 µM (inactive) with HT-29; 24.5 µM (inactive) with K562; 21.9 µM (inactive) in the experiment with RPMI-8226; > 100 µM (inactive) with NCI/ADR-RES.
